From patent publication US20260028354A1, “TETRAHYDRONAPHTHALENE DERIVATIVES AS ESTROGEN RECEPTOR DEGRADERS” (REGENT OF THE UNIVERSITY OF MICHIGAN, priority 2022, published 2026)
pIC50: −log10 of the molar value. Where two headings read alike, the source gives them in different places.

Assays:
[1] = molecular target: ERα_LBD (GST) (Homo sapiens (Human), UniProt P03372); assay: IC50 measurements for binding to ERα_LBD (GST), LanthaScreen TR-FRET competitive binding; settings: ERα_LBD (GST) 4 nM, Fluormone ES2 Green tracer, 60 min; read-out: ERα HTRF IC50
ERα_LBD (GST), sequence (P03372 311-547): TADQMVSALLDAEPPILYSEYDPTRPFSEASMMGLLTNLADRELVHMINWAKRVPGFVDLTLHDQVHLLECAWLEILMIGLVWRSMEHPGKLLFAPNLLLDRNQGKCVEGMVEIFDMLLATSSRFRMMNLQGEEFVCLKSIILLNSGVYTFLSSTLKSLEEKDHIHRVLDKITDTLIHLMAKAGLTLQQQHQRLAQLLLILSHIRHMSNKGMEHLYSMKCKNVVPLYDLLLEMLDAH
Method in brief: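 Competitive TR-FRET displacement of Fluormone ES2 Green tracer (3 nM) from GST-tagged human ERα LBD (4 nM) with Tb anti-GST (2 nM), in nuclear receptor buffer K plus 5 mM DTT, 1% DMSO. 60 min at room temperature, dark; 520/495 nm ratio vs log[compound] fitted sigmoidally for IC50.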

[2] = tested on: MCF-7 cells; assay: CellTiter-Glo (CTG) cell proliferation assay in MCF-7 cells; format: cell-based; settings: Homo sapiens, MCF7, 144 h, MCF-7 cell proliferation, Day 6
From the text: (§1) CellTiter-Glo® (CTG) Assays in MCF-7 and T47D Cell Lines.
(§2) In vitro Assay: MCF-7 and T47D CTG assay

[3] = molecular target: ER in T47D cells (Homo sapiens (Human), UniProt P03372); assay: In-cell Western (ICW) ER degradation assay in T47D cells; format: cell-based; settings: for DC50: ER degradation
ER in T47D cells, sequence (P03372 whole entry): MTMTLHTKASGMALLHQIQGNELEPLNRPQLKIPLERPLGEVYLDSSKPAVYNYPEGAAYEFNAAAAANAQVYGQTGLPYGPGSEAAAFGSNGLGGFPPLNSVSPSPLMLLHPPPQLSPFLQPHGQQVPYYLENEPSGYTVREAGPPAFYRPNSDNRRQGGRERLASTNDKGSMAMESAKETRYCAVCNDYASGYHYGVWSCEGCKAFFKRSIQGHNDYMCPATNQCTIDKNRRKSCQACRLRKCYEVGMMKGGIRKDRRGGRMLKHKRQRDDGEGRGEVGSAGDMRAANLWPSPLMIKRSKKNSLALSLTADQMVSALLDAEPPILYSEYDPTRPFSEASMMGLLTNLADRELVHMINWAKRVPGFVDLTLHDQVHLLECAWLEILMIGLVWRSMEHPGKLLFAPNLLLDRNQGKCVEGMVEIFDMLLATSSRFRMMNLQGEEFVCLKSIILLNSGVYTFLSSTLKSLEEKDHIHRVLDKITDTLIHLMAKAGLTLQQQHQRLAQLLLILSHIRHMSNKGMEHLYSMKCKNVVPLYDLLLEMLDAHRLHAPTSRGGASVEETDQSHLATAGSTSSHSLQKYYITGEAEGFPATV

[4] = molecular target: ER in MCF-7 cells (Homo sapiens (Human), UniProt P03372); assay: In-cell Western (ICW) ER degradation assay in MCF-7 cells; format: cell-based; settings: for DC50: MCF-7, ER degradation, read-out: MCF7 DC50
ER in MCF-7 cells, sequence (P03372 whole entry): as above

[5] = tested on: T47D cells; assay: CellTiter-Glo (CTG) cell proliferation assay in T47D cells; format: cell-based; settings: Homo sapiens, 144 h, Day 6
From the text: as §1, §2

[6] = molecular target: CRBN/DDB1 (Homo sapiens (Human), UniProt Q96SW2); format: binding; settings: His tagged CRBN+DDB1, Cy5-labeled Thalidomide probe, one hour; read-out: CRBN HTRF IC50
CRBN/DDB1, sequence (Q96SW2 whole entry, species assumed): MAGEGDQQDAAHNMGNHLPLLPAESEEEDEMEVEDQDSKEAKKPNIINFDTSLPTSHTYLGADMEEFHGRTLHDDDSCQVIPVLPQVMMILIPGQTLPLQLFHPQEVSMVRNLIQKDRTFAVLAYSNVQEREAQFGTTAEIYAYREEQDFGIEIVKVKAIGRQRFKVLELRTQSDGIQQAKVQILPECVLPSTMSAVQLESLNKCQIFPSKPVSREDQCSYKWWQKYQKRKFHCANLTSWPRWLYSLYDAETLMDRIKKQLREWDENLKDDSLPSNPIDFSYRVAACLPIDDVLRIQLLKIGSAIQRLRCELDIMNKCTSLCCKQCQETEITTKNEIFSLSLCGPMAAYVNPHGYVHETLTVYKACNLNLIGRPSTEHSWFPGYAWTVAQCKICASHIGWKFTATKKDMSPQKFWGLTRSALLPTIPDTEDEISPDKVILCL
CRBN/DDB1, sequence (Q16531 whole entry partner, species assumed): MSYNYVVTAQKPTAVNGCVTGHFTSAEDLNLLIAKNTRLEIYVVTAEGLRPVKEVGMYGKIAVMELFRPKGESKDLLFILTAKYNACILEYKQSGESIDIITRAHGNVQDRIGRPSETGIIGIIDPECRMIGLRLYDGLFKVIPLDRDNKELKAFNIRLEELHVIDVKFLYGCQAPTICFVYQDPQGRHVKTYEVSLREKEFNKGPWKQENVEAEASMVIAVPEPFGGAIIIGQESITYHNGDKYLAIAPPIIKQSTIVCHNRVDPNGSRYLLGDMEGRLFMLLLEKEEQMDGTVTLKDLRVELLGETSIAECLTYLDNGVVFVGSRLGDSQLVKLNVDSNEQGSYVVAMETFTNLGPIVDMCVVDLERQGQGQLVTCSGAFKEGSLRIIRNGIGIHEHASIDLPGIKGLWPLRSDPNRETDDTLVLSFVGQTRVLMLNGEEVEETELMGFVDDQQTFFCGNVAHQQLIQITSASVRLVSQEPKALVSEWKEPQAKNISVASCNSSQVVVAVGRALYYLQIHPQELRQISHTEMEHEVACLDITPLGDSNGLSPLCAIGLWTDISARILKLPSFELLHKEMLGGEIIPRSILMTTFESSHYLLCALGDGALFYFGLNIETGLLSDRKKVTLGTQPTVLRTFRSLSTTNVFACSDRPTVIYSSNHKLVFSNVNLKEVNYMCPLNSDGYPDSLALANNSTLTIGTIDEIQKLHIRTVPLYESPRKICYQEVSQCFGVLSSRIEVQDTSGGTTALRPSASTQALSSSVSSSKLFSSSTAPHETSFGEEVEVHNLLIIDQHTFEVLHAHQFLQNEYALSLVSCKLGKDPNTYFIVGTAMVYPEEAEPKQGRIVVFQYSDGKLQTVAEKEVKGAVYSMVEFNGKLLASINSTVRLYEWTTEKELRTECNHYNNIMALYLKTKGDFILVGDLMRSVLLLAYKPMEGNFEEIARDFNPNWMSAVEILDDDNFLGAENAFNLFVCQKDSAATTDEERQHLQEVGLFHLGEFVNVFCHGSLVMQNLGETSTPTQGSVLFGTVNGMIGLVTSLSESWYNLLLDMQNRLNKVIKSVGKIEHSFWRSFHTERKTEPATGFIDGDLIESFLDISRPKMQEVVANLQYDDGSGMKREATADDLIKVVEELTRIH
Experimental: The binding potency was determined using HTRF assay technology (Perkin Elmer). Compounds were serially diluted in DMSO and […] volume was transferred to white 384-well plate.

[7] = maximal ER degradation, 16 hrs treatment, read-out: T47D Dmax
[8] = MCF7, MCF-7, maximal ER degradation, 16 hrs treatment, read-out: MCF7 Dmax
[9] = MCF7, read-out: MCF7 Dmax, MCF-7, maximal ER degradation, 16 hrs treatment
[10] = read-out: T47D Dmax, T47D, maximal ER degradation, 16 hrs treatment

Q: Which results are given for `COc1cc(N2CCC3(CC2)CC(CN2CCC(c4ccc(N[C@@H]5CCC(=O)NC5=O)cc4)CC2)C3)c(F)cc1[C@@H]1c2ccc(O)cc2CC[C@@H]1c1ccccc1` (single isomer, unassigned) [Compound A31]?
A: pIC50 [1]: > 8.00; pIC50 [2]: 7.00 to 8.00; DC50 ([3]; 16 hrs treatment): < 1 nM; Dmax [3, 7]: > 75%; Dmax [4, 8]: 50 to 75%; DC50 ([4]; 16 hrs treatment): < 1 nM; pIC50 [5]: < 7.00

Q: `O=C1CC[C@H](N2Cc3c(ccc4c3OC[C@H]3CN(CC5COC6(C5)CN(c5ccc([C@H]7c8ccc(O)cc8CC[C@H]7c7ccccc7)cc5)C6)CCN43)C2=O)C(=O)N1` (single isomer, unassigned) [Compound A41] was tested. Which pIC50 [6] did it give?
A: > 7.30

Q: What about the pIC50 [1] of the same compound?
A: > 8.00

Q: And the pIC50 [2]?
A: > 8.00

Q: What about the DC50 ([3]; 16 hrs treatment) of the same compound?
A: < 1 nM

Q: What about the Dmax [3, 7] of the same compound?
A: > 75%

Q: And the Dmax [4, 8]?
A: > 75%

Q: What about the DC50 ([4]; 16 hrs treatment) of the same compound?
A: < 1 nM

Q: And the pIC50 [5]?
A: > 8.00

Q: What does the source list for `O=C1CC[C@H](N2Cc3cc4c(cc3C2=O)OC[C@@H]2CN(CC3COC5(C3)CN(c3ccc([C@H]6c7ccc(O)cc7CC[C@H]6c6ccccc6)cc3)C5)CCN42)C(=O)N1` (single isomer, unassigned) [Compound A43]?
A: pIC50 [6]: 6.30 to 7.30; pIC50 [1]: > 8.00; pIC50 [2]: 7.00 to 8.00; DC50 ([3]; 16 hrs treatment): < 1 nM; Dmax [3, 7]: > 75%; Dmax [4, 8]: 50 to 75%; DC50 ([4]; 16 hrs treatment): < 1 nM; pIC50 [5]: 7.00 to 8.00

Q: Which results are given for `COc1cc(N2CCC3(CC2)C[C@H](CN2CCN4c5cc6c(cc5OC[C@@H]4C2)C(=O)N([C@H]2CCC(=O)NC2=O)C6)CO3)ccc1[C@@H]1c2ccc(O)cc2CC[C@@H]1c1ccccc1` (single isomer, unassigned) [Compound A135]?
A: pIC50 [6]: 5.30 to 6.30; pIC50 [1]: > 8.00; pIC50 [2]: > 8.00; DC50 ([3]; 16 hrs treatment): < 1 nM; Dmax [4, 8]: > 75%; DC50 ([4]; 16 hrs treatment): < 1 nM; pIC50 [5]: > 8.00

Q: With `COc1cc(N2CCC3(CC2)C[C@@H](CN2CCN4c5cc6c(cc5OC[C@@H]4C2)C(=O)N([C@H]2CCC(=O)NC2=O)C6)CO3)ccc1[C@@H]1c2ccc(O)cc2CC[C@@H]1c1ccccc1` (single isomer, unassigned) [Compound A136] as the compound, how does the pIC50 [6] read?
A: 5.30 to 6.30

Q: What about the pIC50 [1] of the same compound?
A: > 8.00

Q: And the pIC50 [2]?
A: > 8.00

Q: And the DC50 ([3]; 16 hrs treatment)?
A: < 1 nM

Q: What about the Dmax [3, 7] of the same compound?
A: > 75%

Q: What about the Dmax [4, 8] of the same compound?
A: > 75%

Q: And the DC50 ([4]; 16 hrs treatment)?
A: < 1 nM

Q: What about the pIC50 [5] of the same compound?
A: > 8.00

Q: With `COc1cc(N2CCC(CN3CCN4c5cc6c(cc5OC[C@H]4C3)C(=O)N([C@@H]3CCC(=O)NC3=O)C6)CC2)ccc1[C@H]1c2ccc(O)cc2CC[C@H]1c1ccccc1` (stereo in doubt) [Compound A34, (R)-3-((R)-3-((1-(4-((1R,2R)-6-hydroxy-2-phenyl-1,2,3,4-tetrahydronaphthalen-1-yl)-3-methoxyphenyl)piperidin-4-yl)methyl)-8-oxo-1,2,3,4,4a,5,8,10-octahydro-9H-pyrazino[1′,2′: 4,5][1,4]oxazino[2,3-f]isoindol-9-yl)piperidine-2,6-dione] as the compound, how does the pIC50 [2] read?
A: > 8.00

Q: What about the DC50 ([3]; 16 hrs treatment) of the same compound?
A: < 1 nM

Q: And the Dmax [3, 7]?
A: > 75%

Q: What about the Dmax [4, 9] of the same compound?
A: > 75%

Q: What about the DC50 ([4]; 16 hrs treatment) of the same compound?
A: < 1 nM

Q: And the pIC50 [5]?
A: > 8.00

Q: With `COc1cc(N2CCC(CN3CCN4c5ccc6c(c5OCC4C3)CN([C@H]3CCC(=O)NC3=O)C6=O)CC2)c(F)cc1[C@@H]1c2ccc(O)cc2CC[C@@H]1c1ccccc1` (stereo in doubt) [Compound A35, (S)-3-((S)-7-((1-(2-fluoro-4-((1S,2S)-6-hydroxy-2-phenyl-1,2,3,4-tetrahydronaphthalen-1-yl)-5-methoxyphenyl)piperidin-4-yl)methyl)-1-oxo-1,3,5,5a,6,7,8,9-oCtahydro-2H-pyrazino[1′,2′: 4,5][1,4]oxazino[2,3-e]isoindol-2-yl)piperidine-2,6-dione] as the compound, how does the pIC50 [1] read?
A: > 8.00

Q: And the pIC50 [2]?
A: 7.00 to 8.00

Q: And the DC50 ([3]; 16 hrs treatment)?
A: < 1 nM

Q: What about the Dmax [3, 7] of the same compound?
A: > 75%

Q: And the Dmax [4, 9]?
A: > 75%

Q: And the DC50 ([4]; 16 hrs treatment)?
A: < 1 nM

Q: What about the pIC50 [5] of the same compound?
A: 7.00 to 8.00

Q: With `O=C1CC[C@H](N2Cc3cc4c(cc3C2=O)OC[C@@H]2CN(C[C@@H]3COC5(C3)CN(c3ccc([C@@H]6c7ccc(O)cc7CC[C@@H]6c6ccccc6)cc3)C5)CCN42)C(=O)N1` [Compound A73, (S)-3-((S)-3-(((R)-2-(4-((1R,2S)-6-hydroxy-2-phenyl-1,2,3,4-tetrahydronaphthalen-1-yl)phenyl)-5-oxa-2-azaspiro[3.4]octan-7-yl)methyl)-8-oxo-1,2,3,4,4a,5,8,10-octahydro-9H-pyrazino[1′,2′:4,5][1,4]oxazino[2,3-f]isoindol-9-yl)piperidine-2,6-dione] as the compound, how does the pIC50 [6] read?
A: 5.30 to 6.30

Q: And the pIC50 [1]?
A: > 8.00

Q: And the pIC50 [2]?
A: 7.00 to 8.00

Q: What about the DC50 ([3]; 16 hrs treatment) of the same compound?
A: < 1 nM

Q: And the Dmax [3, 7]?
A: > 75%

Q: What about the Dmax [4, 8] of the same compound?
A: > 75%

Q: And the DC50 ([4]; 16 hrs treatment)?
A: < 1 nM

Q: `COc1cc(N2CCC3(CC2)CC(CN2CCC4(CC2)COc2c4ccc4c2CN([C@H]2CCC(=O)NC2=O)C4=O)C3)c(F)cc1[C@@H]1c2ccc(O)cc2CC[C@@H]1c1ccccc1` [Compound A100, (S)-3-(1′-((7-(2-fluoro-4-((1S,2S)-6-hydroxy-2-phenyl-1,2,3,4-tetrahydronaphthalen-1-yl)-5-methoxyphenyl)-7-azaspiro[3.5]nonan-2-yl)methyl)-6-oxo-6,8-dihydro-2H,7H-spiro[furo[2,3-e]isoindole-3,4′-piperidin]-7-yl)piperidine-2,6-dione] was tested. Which pIC50 [6] did it give?
A: > 7.30

Q: And the pIC50 [1]?
A: > 8.00

Q: What about the pIC50 [2] of the same compound?
A: > 8.00

Q: And the DC50 ([3]; 16 hrs treatment)?
A: < 1 nM

Q: What about the Dmax [3, 10] of the same compound?
A: > 75%

Q: And the Dmax [4, 9]?
A: > 75%

Q: And the DC50 ([4]; 16 hrs treatment)?
A: < 1 nM

Q: And the pIC50 [5]?
A: > 8.00

Q: What does the source list for `COc1cc(N2CCC3(CC2)C[C@H](CN2CCN4c5cc6c(cc5OC[C@@H]4C2)C(=O)N([C@H]2CCC(=O)NC2=O)C6)CO3)c(F)cc1[C@@H]1c2ccc(O)cc2CC[C@@H]1c1ccccc1` [Compound A173, (S)-3-((S)-3-(((R)-8-(2-fluoro-4-((1S,2S)-6-hydroxy-2-phenyl-1,2,3,4-tetrahydronaphthalen-1-yl)-5-methoxyphenyl)-1-oxa-8-azaspiro[4.5]decan-3-yl)methyl)-8-oxo-1,2,3,4,4a,5,8,10-octahydro-9H-pyrazino[1′,2′:4,5][1,4]oxazino[2,3-f]isoindol-9-yl)piperidine-2,6-dione]?
A: pIC50 [1]: > 8.00; pIC50 [2]: > 8.00; DC50 ([3]; 16 hrs treatment): < 1 nM; Dmax [3, 7]: > 75%; Dmax [4, 8]: > 75%; DC50 ([4]; 16 hrs treatment): < 1 nM; pIC50 [5]: > 8.00

Q: What does the source list for `COc1cc(N2CCC3(CC2)C[C@H](CN2CCN4c5ccc6c(c5OC[C@H]4C2)CN([C@H]2CCC(=O)NC2=O)C6=O)CO3)c(F)cc1[C@@H]1c2ccc(O)cc2CC[C@@H]1c1ccccc1` [Compound A174, (S)-3-((R)-7-(((R)-8-(2-fluoro-4-((1S,2S)-6-hydroxy-2-phenyl-1,2,3,4-tetrahydronaphthalen-1-yl)-5-methoxyphenyl)-1-oxa-8-azaspiro[4.5]decan-3-yl)methyl)-1-oxo-1,3,5,5a,6,7,8,9-octahydro-2H-pyrazino[1′,2′:4,5][1,4]oxazino[2,3-e]isoindol-2-yl)piperidine-2,6-dione]?
A: pIC50 [1]: > 8.00; pIC50 [2]: > 8.00; DC50 ([3]; 16 hrs treatment): < 1 nM; Dmax [3, 7]: > 75%; Dmax [4, 8]: > 75%; DC50 ([4]; 16 hrs treatment): < 1 nM; pIC50 [5]: > 8.00

Q: `COc1cc(N2CCC3(CC2)C[C@H](CN2CCC4(CC2)COc2cc5c(cc24)CN([C@H]2CCC(=O)NC2=O)C5=O)CO3)c(F)cc1[C@@H]1c2ccc(O)cc2CC[C@@H]1c1ccccc1` [Compound A175, (S)-3-(1′-(((R)-8-(2-fluoro-4-((1S,2S)-6-hydroxy-2-phenyl-1,2,3,4-tetrahydronaphthalen-1-yl)-5-methoxyphenyl)-1-oxa-8-azaspiro[4.5]decan-3-yl)methyl)-7-oxo-5,7-dihydro-2H,6H-spiro[furo[2,3-f]isoindole-3,4′-piperidin]-6-yl)piperidine-2,6-dione] was tested. Which pIC50 [1] did it give?
A: > 8.00

Q: And the pIC50 [2]?
A: > 8.00

Q: What about the DC50 ([3]; 16 hrs treatment) of the same compound?
A: < 1 nM

Q: What about the Dmax [3, 10] of the same compound?
A: > 75%

Q: And the Dmax [4, 9]?
A: > 75%

Q: And the DC50 ([4]; 16 hrs treatment)?
A: < 1 nM

Q: What about the pIC50 [5] of the same compound?
A: > 8.00

Q: With `COc1cc(N2CCC3(CC2)C[C@H](CN2CCC4(CC2)COc2c4ccc4c2CN([C@H]2CCC(=O)NC2=O)C4=O)CO3)c(F)cc1[C@@H]1c2ccc(O)cc2CC[C@@H]1c1ccccc1` [Compound A176] as the compound, how does the pIC50 [1] read?
A: > 8.00

Q: What about the pIC50 [2] of the same compound?
A: > 8.00

Q: And the DC50 ([3]; 16 hrs treatment)?
A: < 1 nM

Q: And the Dmax [3, 10]?
A: > 75%

Q: And the Dmax [4, 9]?
A: > 75%

Q: What about the DC50 ([4]; 16 hrs treatment) of the same compound?
A: < 1 nM

Q: And the pIC50 [5]?
A: > 8.00
